Molecular target: T1, H+ K+ ATPase (lyophilised gastric vesicles) (Sus scrofa, UniProt P19156)
T1 construct: Lyophilised gastric vesicles were prepared from pig fundic mucosa; from tissue; host or cells: pig fundic mucosa (lyophilised gastric vesicles)
Assay: K+-stimulated ATPase activity in lyophilised gastric vesicles
Type: biochemical
Settings: lyophilised gastric vesicles from pig fundic mucosa, 37° C., pH 7.0, 1 mM KCl, 30 minutes incubation
Protocol: The effects of a single high concentration (100 μM) of a compound of structure (I) on K-stimulated ATPase activity in lyophilised gastric vesicles was determined. Preferred compounds of structure (I) were also tested over a range of concentrations to determine IC50 values.
(i) Preparation of lyophilised gastric vesicles (H/K-ATPase)
Lyophilised gastric vesicles were prepared from pig fundic mucosa after the method of Keeling et. al. (Biochem. Pharmacol., 34, 2967, 1985).
(ii) K^+ -stimulated ATPase activity.
K^+ -stimulated ATPase activity was determined at 37° C. in the presence of the following : I0 mM Pipes/Tris buffer pH 7.0, 2 mM MgSO4, 1 mM KCl, 2 mM Na2 ATP and 3-6 μg protein/ml lyophilised gastric vesicles. After incubation for 30 minutes, the inorganic phosphate hydrolysed from ATP was determined by the method of Yoda and Hokin (Biochem. Biophys. Res. Commun. 40, 880, 1970).
Compounds of structure (I) were dissolved in dimethylsulphoxide which up to the highest concentration used had no effect on K+-stimulated ATPase activity.
The effect of the highest concentration of each compound of structure (I) on the recovery of a standard amount of inorganic phosphate wa also determined.

T1 sequence (P19156 2-1034 limits assumed): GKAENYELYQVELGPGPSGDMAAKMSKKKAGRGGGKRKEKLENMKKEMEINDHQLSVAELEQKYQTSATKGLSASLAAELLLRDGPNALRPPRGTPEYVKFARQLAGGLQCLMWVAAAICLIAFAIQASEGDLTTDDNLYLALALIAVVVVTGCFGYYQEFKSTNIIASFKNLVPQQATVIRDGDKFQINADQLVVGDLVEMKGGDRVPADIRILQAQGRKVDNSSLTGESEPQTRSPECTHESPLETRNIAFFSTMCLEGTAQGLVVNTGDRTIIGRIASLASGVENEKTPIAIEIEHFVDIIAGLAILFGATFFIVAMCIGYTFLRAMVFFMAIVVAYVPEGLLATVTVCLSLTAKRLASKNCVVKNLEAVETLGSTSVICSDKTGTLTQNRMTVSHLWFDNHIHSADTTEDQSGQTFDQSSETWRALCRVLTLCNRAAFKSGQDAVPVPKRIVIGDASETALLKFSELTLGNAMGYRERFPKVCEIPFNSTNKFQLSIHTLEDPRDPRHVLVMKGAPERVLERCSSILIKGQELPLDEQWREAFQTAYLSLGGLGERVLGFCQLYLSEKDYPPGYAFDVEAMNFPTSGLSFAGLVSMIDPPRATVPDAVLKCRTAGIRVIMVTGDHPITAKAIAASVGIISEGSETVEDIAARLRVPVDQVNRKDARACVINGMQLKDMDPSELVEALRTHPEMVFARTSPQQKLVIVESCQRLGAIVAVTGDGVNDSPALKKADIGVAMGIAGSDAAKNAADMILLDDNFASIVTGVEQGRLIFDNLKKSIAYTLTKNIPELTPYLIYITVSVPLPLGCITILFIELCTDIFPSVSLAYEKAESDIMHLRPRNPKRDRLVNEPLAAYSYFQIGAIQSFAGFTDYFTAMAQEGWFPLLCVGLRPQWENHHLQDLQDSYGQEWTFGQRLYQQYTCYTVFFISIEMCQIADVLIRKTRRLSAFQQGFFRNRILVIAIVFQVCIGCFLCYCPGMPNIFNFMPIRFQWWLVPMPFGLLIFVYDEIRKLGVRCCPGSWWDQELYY
T1 sequence (P18434 whole entry partner): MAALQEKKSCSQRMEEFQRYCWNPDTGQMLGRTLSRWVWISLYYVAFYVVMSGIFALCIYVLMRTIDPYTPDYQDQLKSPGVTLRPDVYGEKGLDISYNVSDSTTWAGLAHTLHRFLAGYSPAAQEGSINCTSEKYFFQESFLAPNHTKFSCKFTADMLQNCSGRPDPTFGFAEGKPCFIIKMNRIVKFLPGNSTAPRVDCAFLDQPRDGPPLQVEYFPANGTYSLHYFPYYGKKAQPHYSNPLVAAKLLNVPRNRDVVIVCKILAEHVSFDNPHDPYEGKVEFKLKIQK

SMILES | IC50
CCCC(=O)c1cnc2c(OCCCN(C)C)cccc2c1Nc1ccccc1C [Example 1, 3-butyryl-4-(2-methylphenylamino)-8-(3-dimethylaminopropoxy)quinoline] | 390 to 3520 nM
CCCC(=O)c1cnc2c(OCCCN(C)C)cccc2c1Nc1ccc(F)cc1C [Example 2, 3-butyryl-4-(4-fluoro-2-methylphenylamino)-8-(3-dimethylaminopropoxy)quinoline] | 390 to 3520 nM
CCCC(=O)c1cnc2c(OCCN(C)C)cccc2c1Nc1ccccc1C [Example 3, 3-butyryl-4-(2-methylphenylamino)-8-(2-dimethylaminoethoxy)quinoline] | 390 to 3520 nM
CCCC(=O)c1cnc2c(OCCCN3CCCC3)cccc2c1Nc1ccccc1C [Example 4, 3-butyryl-4-(2-methylphenylamino)-8-(3-(1-pyrrolidinyl)propoxy)quinoline] | 390 to 3520 nM
CCCC(=O)c1cnc2c(OCCCN3CCCCC3)cccc2c1Nc1ccccc1C [Example 5, 3-butyryl-4-(2-methylphenylamino)-8-(3-piperidinopropoxy)quinoline] | 390 to 3520 nM
CCCC(=O)c1cnc2c(OCCCN3CCOCC3)cccc2c1Nc1ccccc1C [Example 6, 3-butyryl-4-(2-methylphenylamino)-8-(3-morpholinopropoxy)quinoline] | 390 to 3520 nM
CCCC(=O)c1cnc2c(C(O)CN3CCOCC3)cccc2c1Nc1ccccc1C (centres unmarked) [Example 7, 3-butyryl-4-(2-methylphenylamino)-8-(1-hydroxy-2-(1-morpholino)ethyl)quinoline] | 390 to 3520 nM
CCCC(=O)c1cnc2c(C(O)CN(C)C)cccc2c1Nc1ccccc1C (centres unmarked) [Example 8, 3-butyryl-4-(2-methylphenylamino)-8-(1-hydroxy-2-dimethylaminoethyl)quinoline] | 390 to 3520 nM
CCCC(=O)c1cnc2c(OCCCN(C)Cc3ccccc3)cccc2c1Nc1ccccc1C [Example 9, 3-butyryl-4-(2-methylphenylamino)-8-(3-(N-benzyl-N-methylamino)propoxy)quinoline] | 390 to 3520 nM
CCCC(=O)c1cnc2c(OCCCN(C)CCCc3ccccc3)cccc2c1Nc1ccccc1C [Example 10, 3-butyryl-4-(2-methylphenylamino)-8-(3-(N-methyl-N-(3-phenylpropyl)amino)propoxy)quinoline] | 390 to 3520 nM
CCCC(=O)c1cnc2c(NCCCN3CCOCC3)cccc2c1Nc1ccccc1C [Example 11, 3-butyryl-4-(2-methylphenylamino)-8-(3-morpholinopropylamino)quinoline] | 390 to 3520 nM

— US5082841A, “3-carbonyl-4-amino-8-substituted quinoline compounds useful in inhibiting gastric acid secretions” (SmithKline Beecham Intercredit B.V., priority 1989, dated 1992)
